Measured values reported in patent US20040081682A1, “Transdermal system (tds) that contain inhibitors of phosphodiesterase lV” (priority 2000, published 2004).

Assay: Pharmacokinetic study of humans (transdermal TDS E vs. intravenous infusion, serum RIA)
Conditions: human, in vivo
Experimental: Pharmacokinetic Study of Humans
The above-described formulation E was tested on twelve healthy males at the age of 20 to 42 years with normal body weight, whereby for 72 hours in each case, three transdermal formulations of 10 cm^2 each with 5 mg of (R)-(−)-5-(4-methoxyphenyl-3-propoxy)-5-methyl-2-oxazolidinone were simultaneously applied on the lower back area. After 72 hours, the transdermal formulation was removed and within one week of washing-out time, the concentration of the active ingredient in the serum was determined per RIA. The measured serum levels of the active ingredient produced an average transdermal substance flow of 0.49±0.7 μg/cm^2/h, at maximum serum levels of 0.88 ng/ml in the time interval of 29±10 hours.
Based on the pronounced plateau phase, which was achieved after the administration of the TDS, at the time of the reduction of TDS after three days, it was still possible to measure mesopram concentrations in the range of 65±18% of the maximum levels. […] The AUC values as well as other pharmacokinetic parameters are found in Table 3. In a comparison test with intravenous administration of a total of 0.2 mg of (R)-(−)-5-(4-methoxyphenyl-3-propoxy)-5-methyl-2-oxazolidinone within one hour, a multiple of higher serum levels was measured that was […]. One hour after the infusion was completed, the mean serum levels dropped to 1.15±0.44 ng·ml·l. Later on, the serum levels dropped off four hours after completion of the infusion to achieve a level of 0.39±0.17 ng·ml·l, after 8 hours 0.17±0.09 ng·ml·l, and after 24 hours 0.08±0.08 ng·ml·l. The essential pharmacokinetic parameters after i.v. administration of mesopram are depicted in Tab. 3. The comparison test with infusion was performed on the same test subjects as the transdermal administration. […]

**Q.** With “(R)-(−)-5-(4-methoxyphenyl-3-propoxy)-5-methyl-2-oxazolidinone [mesopram]” as the substance, how does the “Cl (clearance)” value read?
**A.** 5.1 ± 1.8

**Q.** And the “f (absolute bioavailability)” value?
**A.** 100%

**Q.** And the “ιη (half-life)” value?
**A.** 2.5 ± 0.9 h
